Experiments:
MC38 tumor cells = assay: MC38 tumors in GF mice: inosine with anti-CTLA-4 with or without CpG; type: in vivo
Protocol: FIG. 5A-5L: Inosine promotes Th1 activation and anti-tumor immunity. (a) Schematic overview of experimental setup to assess the effect of inosine on Th1 activation in vivo. (b, c) Representative dot plots and quantification (left and right panel respectively) of T-bet^+IFN-γ^+CD3ε^+ (b) CD8^+ or (c) CD4^+ T cells in the MLN. (d) Schematic overview of experimental setup to assess the effect of inosine on anti-tumor immunity. Upon palpable tumors, mice were treated with 100 μg anti-CTLA-4 i.p. (5 times every 72 hours) and in some groups 20 μg CpG i.p. (5 times every 72 hours). In addition, inosine (300 mg/KG/BW) or PBS was given daily orally (O), through gavage or systemically (S) through i.p. injection. (e) Tumor weight and quantification of IFN-γ^+ cells amongst (f) CD4^+ or (g) CD8^+ cells are shown. (h). Schematic overview to assess the requirement of A2AR signaling for inosine-induced anti-tumor immunity. 1×10^6 MC38 cells (s.c.) and WT or A2AR-deficient 1×10^7 T cells (i.v. 6×10^6 CD4^+ and 4×10^6 CD8^+ cells) were injected. Upon palpable tumors, mice were treated with 100 μg anti-CTLA-4, 20 μg CpG (4 times every 72 hours, both i.p.) and inosine (daily, 300 mg/KG/BW, through gavage). (i) Pictures of tumors are shown at day 20. scale bars: 1 cm. (j) Tumor weight and quantification of IFN-γ^+ in (k) CD8^+ or (l) CD4^+ cells in the tumor are shown. Data are mean±SEM and pooled from two individual experiments (a-l) 10-11 mice/group. *, P<0.05; **, P<0.01; ***, P<0.001.
FIG. 18A-18H: Classical dendritic cells are required for bacteria dependent effect of ICB. (a) IL-12p70 expression in classical dendritic cells (MHCII^+CD11c^+B220^−CD64^−) and macrophages (MHCII^+CD11c^+B220^−, CD64^+) (b) Quantification of IL-12p70 expression in macrophages and cDCs. Classical dendritic cells were depleted with diphtheria toxin (DT) in bone marrow chimeric mice after MC38 tumor challenge, followed by anti-CTLA-4 treatment (see FIG. 4h for experimental setup). Quantification of splenic (c) IFN-γ^+CD8^+ or (d) Ki-67^+ CD8^+ T cells. (e and f) same as (c and d) but for CD4^+ T cells. (g and h) 1×10^6 MC38 cells (s.c.) were injected in GF mice. Seven days later upon palpable tumors, mice were treated with 100 μg anti-CTLA-4 i.p. (5 times every 72 hours) and in some groups 20 μg CpG i.p. (5 times every 72 hours). In addition, inosine (300 mg/KG/BW) or PBS was given daily orally (O), through gavage or systemically (S) through i.p. injection. Quantification of Ki-67^+ cells is shown. […]
To evaluate the effect of inosine on Th1 activation, mice received 30 μg CpG, […] EndoFit Ovalbumin (both Invivogen) and 2 μg OVA323-339 (Sigma) i.p. and 24 hours later mice received 300 mg/kg/BW inosine or PBS as a control through i.p. injection. T cell differentiation was assessed 48 hours later. […]

[1] = tested on: A2AR-deficient CD4^+ T cells; assay: A2AR-deficient naive CD4+ T cells with anti-CD3/anti-CD28 coated beads; type: cell-based, mice
Protocol: FIG. 16A-16J: Context dependent effect of inosine on Th1 T cell differentiation. (a) Naïve CD4^+ T cells were co-cultured with bone marrow derived dendritic cells without IFN-γ. Quantification of T-bet^+CD3e^+CD4^+ T cells 48 hours after co-culture in the presence or absence of inosine and anti-CTLA-4, as indicated. (b) Naïve CD4^+ T cells were cultured anti-CD3/anti-CD28 coated beads at a ratio of 1:1 without IFN-γ for 48 hours. Representative plot and quantification of IL12Rβ2 surface expression on CD4^+ T cells in the presence or absence of inosine (left and right panel). (c) Quantification of T-bet^+CD3e^+CD4^+ T cells 48 hours after co-culture in the presence or absence of inosine, db-cAMP and anti-CTLA-4 as indicated. […] Quantification of T-bet^+CD3e^+CD4^+ T cells 48 hours after co-culture in the presence or absence of inosine or db-cAMP (e) Representative plot and quantification (left and right panel) of pCREB expression of anti-CD3/anti-CD28 bead co-cultured CD4^+ T cells in the presence or absence of inosine or db-cAMP 1 hour after stimulation. […] Il12rb2 and Ifng gene transcripts (normalized to Gapdh) were evaluated 24 and 48 hours following inosine (1 mM) stimulation. […] Analysis through quantitative PCR assay (h) Naïve CD4^+ T cells were cultured with anti-CD3/anti-CD28 coated beads at a ratio of 1:1 without IFN-γ for 24 hours. […]

[2] = with anti-CTLA-4, in the absence of CpG
[3] = with anti-CTLA-4 and CpG, oral or systemic, vs PBS

OC[C@H]1O[C@@H](n2cnc3c(O)ncnc32)[C@H](O)[C@@H]1O [inosine]
anti-tumor immunity (MC38 tumor cells; [2]): reduced anti-tumor immunity
tumor weight (MC38 tumor cells; [2]): increased tumor weight
anti-tumor immunity (MC38 tumor cells; [3]): increased anti-tumor immunity
tumor weight (MC38 tumor cells; [3]): reduction of tumor weight
Th1 differentiation and phosphorylation of CREB [1]: absent
